Each structure is given as a SMILES string.

From patent US5610158A, “4-oxo- and 4H-imidazo(5,1-c)(1,4)benzoxazines useful as benzodiazepine receptor-binding agents” (The Upjohn Company, priority 1994, dated 1997) come the findings set out here.

The assay deals with benzodiazepine receptors. The experiment in a line: displacement of radioactive labelled flunitrazepam from benzodiazepine receptors. Type of assay: binding. Here is the method:
In the following Table, Ki values are shown for Examples 1-19 which include comparative compounds 1, 7, 9 and 11, which are not compounds of the subject invention but are structurally similar.
The Ki value is determined from a concentration response curve obtained in the presence and absence of a fixed concentration of competitive […], flunitrazepam. […] The lower Ki value indicates a higher affinity for benzodiazepine.
By Ki is commonly meant the equilibrium dissociation constant of an inhibitor or competing ligand from its target. As for `CC(C)(C)c1nc(-c2ncn3c2COc2cc(F)ccc2-3)no1` [Example 17, 3-(5-Tert-butyl-1,2,4-oxadiazol-3-yl)-7-fluoro-4H-imidazo(5,1-c)(1,4)benzoxazine], the inhibition constant (Ki) is 443 nM.
For `O=c1oc2ccccc2n2cnc(-c3noc(C4CC4)n3)c12` [Example 10, 3-(5-Cyclopropyl-1,2,4-oxadiazol-3-yl)-4-oxo-4H-imidazo(5,1-c)(1,4)benzoxazine], the Ki turned out to be 656 nM.
Consider `O=C(Nc1ccc2c(c1)OCc1c(-c3noc(C4CC4)n3)ncn1-2)C(F)(F)F` [Example 8, 7-(Amino(trifluoroacetyl))-3-(5-cyclopropyl-1,2,4-oxadiazol-3-yl)-4H-imidazo(5,1-c)(1,4)benzoxazine], for which the Ki stood at 10000 nM.
For `CC(C)(C)OC(=O)c1ncn2c1COc1cc(F)ccc1-2` [Example 16, Tert-butyl 7-fluoro-4H-imidazo(5,1-c)(1,4)benzoxazine-3-carboxylate] the value was 32.4 nM.
Take `Nc1ccc2c(c1)OCc1c(-c3noc(C4CC4)n3)ncn1-2` [Example 5, 7-Amino-3-(5-cyclopropyl-1,2,4-oxadiazol-3-yl)-4H-imidazo(5,1-c)(1,4)benzoxazine]: the inhibition constant Ki turned out to be 65.4 nM.
For `c1ccc2c(c1)OCc1c(-c3nc(C4CC4)no3)ncn1-2` [Example 9, 3-(3-Cyclopropyl-1,2,4-oxadiazol-5-yl)-4H-imidazo(5,1-c)(1,4)benzoxazine, reference compound] the value was 72.6 nM.
With `CC(C)(C)OC(=O)Nc1ccc2c(c1)OC(OC(=O)c1ccccc1)c1c(-c3noc(C4CC4)n3)ncn1-2` (stereo not shown) [Example 6, 7-(Amino(t-butoxycarbonyl))3-(5-cyclopropyl-1,2,4-oxadiazol-3-yl)-4-(benzoyloxy)-4H-imidazo(5,1-c)(1,4)benzoxazine], the Ki was found to be 10000 nM.
For the molecule `CC(C)(C)OC(=O)Nc1ccc2c(c1)OCc1c(-c3noc(C4CC4)n3)ncn1-2` [Example 2, 7-(Amino(t-butoxycarbonyl))-3-(5-cyclopropyl-1,2,4-oxadiazol-3-yl)-4H-imidazo(5,1-c)(1,4)benzoxazine], the inhibitory constant (Ki) was determined as 10000 nM.
For `CC(C)(C)OC(=O)c1ncn2c1COc1ccccc1-2` [Example 11, Tert-butyl 4H-imidazo(5,1-c)(1,4)benzoxazine-3-carboxylate, reference compound] the value was 69.9 nM.
As for `OC1Oc2ccccc2-n2cnc(-c3noc(C4CC4)n3)c21` (stereo not shown) [Example 4, 3-(5-Cyclopropyl-1,2,4-oxadiazol-3-yl)-4-hydroxy-4H-imidazo(5,1-c)(1,4)benzoxazine], the inhibitory constant (Ki) turned out to be 118 nM.
The result for `Fc1ccc2c(c1)OCc1c(-c3noc(C4CC4)n3)ncn1-2` [Example 13, 3-(5-Cyclopropyl-1,2,4-oxadiazol-3-yl)-7-fluoro-4H-imidazo(5,1-c)(1,4)benzoxazine] reads 8.56 nM; that for `CCOC(=O)c1ncn2c1COc1ccccc1-2` [Example 7, Ethyl 4H-imidazo(5,1-c)(1,4)benzoxazine-3-carboxylate, reference compound], 59.6 nM.
With `CC(C)(C)OC(=O)c1ncn2c1COc1c-2ccc(F)c1C#N` [Example 19, Tert-butyl 6-cyano-7-fluoro-4H-imidazo(5,1-c)(1,4)benzoxazine-3-carboxylate], the Ki worked out at 4.6 nM.
For `CN(C)c1noc(-c2ncn3c2COc2cc(F)ccc2-3)n1` [Example 18, 3-(3-dimethylamino-1,2,4-oxadiazol-5-yl)-7-fluoro-4H-imidazo(5,1-c)(1,4)benzoxazine], the inhibitory constant (Ki) worked out at 154 nM.
Take `O=C(OC1Oc2ccccc2-n2cnc(-c3noc(C4CC4)n3)c21)c1ccccc1` (stereo not shown) [Example 3, 3-(5-Cyclopropyl-1,2,4-oxadiazol-3-yl)-4-(benzoyloxy)-4H-imidazo(5,1-c)(1,4)benzoxazine]: the Ki came out at 121 nM.
For the molecule `c1ccc2c(c1)OCc1c(-c3noc(C4CC4)n3)ncn1-2` [Example 1, 3-(5-Cyclopropyl-1,2,4-oxadiazol-3-yl)-4H-imidazo(5,1-c)(1,4)benzoxazine, reference compound], the Ki came to 39.7 nM.
For `CCOC(=O)c1ncn2c1COc1cc(F)ccc1-2` [Example 15, Ethyl 7-fluoro-4H-imidazo(5,1-c)(1,4)benzoxazine-3-carboxylate] the value was 4.59 nM.
Consider `CC1Oc2ccccc2-n2cnc(-c3noc(C4CC4)n3)c21` (stereo not shown) [Example 12, 3-(5-Cyclopropyl-1,2,4-oxadiazol-3-yl)-4-methyl-4H-imidazo(5,1-c)(1,4)benzoxazine], for which the inhibitory constant (Ki) turned out to be 114 nM.
Consider `CC1(C)Oc2ccccc2-n2cnc(-c3noc(C4CC4)n3)c21` [Example 14, 3-(5-Cyclopropyl-1,2,4-oxadiazol-3-yl)-4,4-dimethyl-4H-imidazo(5,1-c)(1,4)benzoxazine], for which the Ki was found to be 67.1 nM.
